Measurements reported in US20130136794A1, “HETEROARYL (ALKYL) DITHIOCARBAMATE COMPOUNDS, PREPARATION METHODS AND USES THEREOF” (PEKING UNIVERSITY, priority 2010, published 2013).
pEC50: −log10 of the molar value.

Key:
Bel-7402 cells = experiment: EC50 on proliferation of Bel7402 cells (SRB, 48 h); assay type: cell-based; details: Homo sapiens, read-out: Bel7402 EC50 (nmol)
Protocol: (§1) EC50 values of the compounds according to the present invention on the proliferation of human leukaemia HL-60 cells and Bel-7402 cells were determined by using the following method, and the results are shown in Table 2.
Testing method for ED50 values on the human Be17402ce11: After the cells were incubated with the addition of the drugs for 48 h, the plates were taken out. 50 μL of pre-cooled 500 g/L trichloroacetic acid was added into each well. The plates were kept in 4° C. refrigerator for 1 h after standing for 5 min, taken out, washed with deionized water for 5 times, and dried in the air. After the plates were completely dried, 100 μL of 0.4% SRB (formulated in 1% acetic acid) was added into each well. Following staining for 20 min, the staining solution was discarded, and the residue was washed with 1% acetic acid for 5 times to remove the uncombined dye. After being dried in the air, the residue was dissolved in 150 μL of 10 mmol/L unbuffered
Tris basic solution (pH=10.5), and oscillated in an oscillator for 5 min. The absorbance of each well at 490 nm was measured with TECAN enzyme mark instrument. The cells in background control plates were treated in the same way for measuring OD490. The EC50 values were calculated by using Prism Graphpad statistical software.

[1] = system: human leukaemia HL-60 cells; experiment: EC50 on proliferation of HL-60 cells (MTT, 48 h); assay type: cell-based; details: read-out: HL-60 EC50 (nmol)
Protocol: as §1
Testing method for EC50 values on the human leukaemia HL-60 cells: The human leukaemia HL-60 cells were cultured in vitro. The cells were collected after growth to logarithmic phase, and centrifugated at 1000 rpm for 5 min. The supernatant was discarded and the cells were suspended in an appropriate amount of medium. The cell concentration was adjusted to 1.2×10^4/mL. The cells were seeded into 96-well culture plates in 90 μL per well. For each well of the drug treatment groups, 10 μL of medium-diluted drug was added, whereas for the blank control groups, the same amount of medium was added. Every testing drug was set up for three parallel wells, and also three control wells with only testing drugs (without cell) were set up. Negative control groups were medium containing 0.5% DMSO. After the plate was incubated in an incubator for 48 h, 10 μL of 5 mg/mL MTT was added into each well, and then the plate was placed for 3 h at 37° C. 100 μL of ternary solution (5% SDS, 10 mM HCl, 5% isopropanol) was added into each well, and the plate was kept at 37° C. overnight. The absorbance (OD) was measured at 595 nm/620 nm. The EC50 values were calculated by using Prism Graphpad statistical software.

HL-60 human leukaemia = experiment: Inhibition of tumor cell proliferation at 10 μM, Model A: MTT method; assay type: cell-based; details: HL-60, MTT method, read-out: Model A Inhibitory rate (%)
Excerpt: (§2) The evaluation of the compounds according to the present invention on the inhibition rate of the proliferation of four different tumor cells, using the routine method for anti-tumor activity tests in the pharmaceutical filed, for example the method described in the following literature: (J. Immuno/Method, 1983, 65, 55).

[2] = system: BGC-823 human gastric cancer; experiment: Inhibition of tumor cell proliferation at 10 μM, Model B: SRB method; assay type: cell-based; details: BGC-823, SRB method, read-out: Model B Inhibitory rate (%)
Excerpt: as §2

[3] = system: KB human nasopharyngeal cancer; experiment: Inhibition of tumor cell proliferation at 10 μM, Model D: SRB method; assay type: cell-based; details: read-out: Model D Inhibitory rate (%)
Excerpt: as §2

[4] = system: Bel-7402 human liver cancer; experiment: Inhibition of tumor cell proliferation at 10 μM, Model C: SRB method; assay type: cell-based; details: Bel-7402, SRB method, read-out: Model C Inhibitory rate (%)
Excerpt: as §2

Structure (SMILES) | melting point [°C] | pEC50 (Bel-7402 cells) | pEC50 [1] | inhibition at 10 µM (HL-60 human leukaemia) [%] | inhibition at 10 µM [2] [%] | inhibition at 10 µM [3] [%] | inhibition at 10 µM [4] [%]
N#CCCSC(=S)Nc1cccnc1 [Compound 30, 2-cyanoethyl pyridin-3-yldithiocarbamate] |  | 6.54 | 7.09 |  |  |  | 
N#CCCSC(=S)NCc1ccc[nH]1 [Compound 46, 2-cyanoethyl[(1H-pyrrol-2-yl)methyl]dithiocarbamate] |  | 6.64 | 6.55 |  |  |  | 
N#CCCSC(=S)NCCCc1cccnc1 [Compound 42, 2-cyanoethyl[3-(pyridin-3-yl)propyl]dithiocarbamate] | 81 to 83 | 8.46 | 8.32 |  |  |  | 
NS(=O)(=O)CCSC(=S)NCc1cccnc1 [Compound 13, 2-sulfamoylethyl(pyridin-3-ylmethyl)dithiocarbamate] |  |  |  | -4.25 | 18.4 | 17.6 | 5.87
Cc1nc(-c2ccccc2)oc1CNC(=S)SCCC#N [Compound 34, 2-cyanoethyl[(4-methyl-2-phenyloxazol-5-yl)methyl]dithiocarbamate] | 221 to 224 | 7.75 | 8.10 |  |  |  | 
N#CCCSC(=S)NCc1cnc2ccccc2c1 [Compound 18, 2-cyanoethyl(quinolin-3-ylmethyl)dithiocarbamate] | 120 to 122 | 6.49 | 8.29 |  |  |  | 
N#CCCSC(=S)NCc1ccco1 [Compound 3, 2-cyanoethyl(furan-2-ylmethyl)dithiocarbamate] |  |  |  | 24.6 | 29.5 | 55.1 | 68.2
C[S+]([O-])CCSC(=S)NCc1cccnc1 (stereo not shown) [Compound 15, 2-(methylsulfinyl)ethyl(pyridin-3-ylmethyl)dithiocarbamate] |  |  |  | 26.1 | 9.95 | 3.58 | -2.37
N#CCCSC(=S)NCc1cnccn1 [Compound 39, 2-cyanoethyl(pyrazin-2-ylmethyl)dithiocarbamate] | 96 to 99 | < 6.00 | < 6.00 |  |  |  | 
OB(O)CCSC(=S)NCc1ccco1 [Compound 6, 2-boronoethyl(furan-2-ylmethyl)dithiocarbamate] |  |  |  | 0.06 | 14.5 | 1.68 | 2.9
CC(NC(=S)SCCC#N)c1cccnc1 (stereo not shown) [Compound 32, 2-cyanoethyl[1-(pyridin-3-yl)ethyl]dithiocarbamate] |  | 7.19 | 8.48 |  |  |  | 
N#CCCSC(=S)NC(c1ccccc1)c1cccnc1 (stereo not shown) [Compound 31, 2-cyanoethyl[phenyl(pyridin-3-yl)methyl]dithiocarbamate] | 118 to 120 | 6.63 | 8.33 |  |  |  | 
NS(=O)(=O)CCSC(=S)NCc1ccco1 [Compound 5, 2-sulfamoylethyl(furan-2-ylmethyl)dithiocarbamate] |  |  |  | 17.3 | 17.2 | 31.6 | 17.5
COC(=O)CCSC(=S)NCc1cccnc1 [Compound 10, 2-(methoxycarbonyl)ethyl(pyridin-3-ylmethyl)dithiocarbamate] |  |  |  | 61.9 | 72 | 91.5 | 87.5

Further lines, with some results ahead:

melting point [°C] | pEC50 (Bel-7402 cells) | pEC50 [1] | Structure (SMILES) | inhibition at 10 µM (HL-60 human leukaemia) [%] | inhibition at 10 µM [2] [%] | inhibition at 10 µM [3] [%] | inhibition at 10 µM [4] [%]
156 to 158 | 7.73 | 7.93 | N#CCCSC(=S)NCc1nnc(-c2ccccc2)s1 [Compound 45, 2-cyanoethyl[(5-phenyl-1,3,4-thiadiazol-2-yl)methyl]dithiocarbamate] |  |  |  | 
 | 7.73 | 9.10 | N#CCCSC(=S)NCCc1cccnc1 [Compound 19, 2-cyanoethyl[2-(pyridin-3-yl)ethyl]dithiocarbamate] |  |  |  | 
88 to 92 | 8.12 | 9.10 | COc1ncccc1CNC(=S)SCCC#N [Compound 20, 2-cyanoethyl[(2-methoxypyridin-3-yl)methyl]dithiocarbamate] |  |  |  | 
 | 8.66 | 6.87 | CN(Cc1cccnc1)C(=S)SCCC#N [Compound 29, 2-cyanoethyl N-methyl-(pyridin-3-ylmethyl)dithiocarbamate] |  |  |  | 
90 to 92 | 6.96 | 9.09 | COc1ccc(CNC(=S)SCCC#N)cn1 [Compound 33, 2-cyanoethyl[(6-methoxypyridin-3-yl)methyl]dithiocarbamate] |  |  |  | 
86 to 90 | 7.99 | 9.25 | COc1cncc(CNC(=S)SCCC#N)c1 [Compound 23, 2-cyanoethyl[(5-methoxypyridin-3-yl)methyl]dithiocarbamate] |  |  |  | 
 | 7.31 | 9.26 | N#CCCSC(=S)NCc1ccc(Oc2ccccc2)nc1 [Compound 27, 2-cyanoethyl[(6-phenoxypyridin-3-yl)methyl]dithiocarbamate] |  |  |  | 
117 to 118 | 7.02 | 7.09 | CN1CCOC2C=C(CNC(=S)SCCC#N)C=NC21 (stereo not shown) [Compound 26, 2-cyanoethyl[(4-methyl-3,4,4a,8a-tetrahydro-2/4-pyrido[3,2-b][1 ,4]oxazin-7-yl)-methyl]dithiocarbamate] |  |  |  | 
 | 8.37 | 8.38 | Cc1cc(CNC(=S)SCCC#N)n(C)n1 [Compound 37, 2-cyanoethyl[(1,3-dimethyl-1H-pyrazol-5-yl)methyl]dithiocarbamate] |  |  |  | 
106 to 112 | 6.93 | 8.16 | COC(=O)c1ccc(CNC(=S)SCCC#N)cn1 [Compound 21, 2-cyanoethyl[(6-methoxycarbonylpyridin-3-yl)methyl]dithiocarbamate] |  |  |  | 
 | 7.60 | 8.22 | Cc1c(CNC(=S)SCCC#N)cnn1-c1ccccc1 [Compound 35, 2-cyanoethyl[(5-methyl-1-phenyl-1H-pyrazol-4-yl)methyl]dithiocarbamate] |  |  |  | 
76 to 78 | 6.53 | 6.96 | N#CCCSC(=S)NCc1nccs1 [Compound 38, 2-cyanoethyl(thiazol-2-ylmethyl)dithiocarbamate] |  |  |  | 
118 to 120 | 7.67 | 8.32 | N#CCCSC(=S)NCc1ccc(-c2ccco2)nc1 [Compound 25, 2-cyanoethyl{[6-(furan-2-yl)pyridin-3-yl]methyl}dithiocarbamate] |  |  |  | 
122 to 124 | 7.49 | 9.33 | CC(C)(C)C(=O)Nc1ccncc1CNC(=S)SCCC#N [Compound 17, 2-cyanoethyl[(4-pivalamidopyridin-3-yl)methyl]dithiocarbamate] |  |  |  | 
102 to 108 | 7.69 | 8.31 | N#CCCSC(=S)NCc1cncc(Br)c1 [Compound 24, 2-cyanoethyl[(5-bromopyridin-3-yl)methyl]dithiocarbamate] |  |  |  | 
168 to 171 |  |  | N#CCCSC(=S)NCc1cncnc1 [Compound 36, 2-cyanoethyl(pyrimidin-5-ylmethyl)dithiocarbamate] |  |  |  | 
 | 7.98 | 7.25 | N#CCCSC(=S)NCc1ccncc1 [Compound 28, 2-cyanoethyl(pyridin-4-ylmethyl)dithiocarbamate] |  |  |  | 
151 to 154 | 7.65 | 8.30 | N#CCCSC(=S)NCc1cnc(N2CCOCC2)nc1 [Compound 41, 2-cyanoethyl[(2-morpholinopyrimidin-5-yl)methyl]dithiocarbamate] |  |  |  | 
148 to 152 | 7.59 | 7.85 | N#CCCSC(=S)NCc1nnc(-c2ccccc2)o1 [Compound 40, 2-cyanoethyl[(5-phenyl-1,3,4-oxadiazol-2-yl)methyl]dithiocarbamate] |  |  |  | 
138 to 142 | 7.63 | 8.77 | Cc1cc(C)c(CNC(=S)SCCC#N)cn1 [Compound 22, 2-cyanoethyl[(4,6-dimethylpyridin-3-yl)methyl]dithiocarbamate] |  |  |  | 
